Assay results reported in the NIST ThermoML archive (doi:10.1016/j.jct.2012.09.004).

Legend:
[1] = refractive index (Na D-line) (dimensionless); wn = mass fraction of the nth substance listed; conditions: 101 kPa, Liquid, Standard Abbe refractometry
[2] = wn = mass fraction of the nth substance listed; conditions: Pendant drop shape
[3] = Pendant drop shape
[4] = refractive index (Na D-line) (dimensionless); conditions: 101.33 kPa, Liquid, Standard Abbe refractometry

CCCCCCCCCCCCCC[P+](CCCCCC)(CCCCCC)CCCCCC.[Br-] [tetradecyltrihexylphosphonium bromide] + O
Conditions	refractive index	surface tension liquid-gas [mN/m]
[1], 298.15 K, w2 = 0.065	1.4782	–
[1], 303.15 K, w2 = 0.065	1.47646	–
[1], 308.15 K, w2 = 0.065	1.47465	–
[1], 313.15 K, w2 = 0.065	1.47289	–
[1], 318.15 K, w2 = 0.065	1.47115	–
[1], 323.15 K, w2 = 0.065	1.46939	–
[1], 328.15 K, w2 = 0.065	1.46765	–
[1], 333.15 K, w2 = 0.065	1.46587	–
[1], 338.15 K, w2 = 0.065	1.46414	–
[1], 343.15 K, w2 = 0.065	1.46244	–
[1], 348.15 K, w2 = 0.065	1.46078	–
[1], 353.15 K, w2 = 0.065	1.45926	–
[2], 298.1 K, w2 = 0.0665	–	31.4
[2], 307.9 K, w2 = 0.0665	–	30.35
[2], 318.1 K, w2 = 0.0665	–	29.64
[2], 328.1 K, w2 = 0.0665	–	28.95
[2], 338.9 K, w2 = 0.0665	–	28.2
[2], 344.2 K, w2 = 0.0665	–	27.91

CCCCCCCCCCCCCC[P+](CCCCCC)(CCCCCC)CCCCCC.[Cl-] [trihexyl(tetradecyl)phosphonium chloride]
Conditions	refractive index	surface tension liquid-gas [mN/m]
[3], 298.6 K	–	30.6
[3], 308 K	–	30.1
[3], 318 K	–	29.3
[3], 328.1 K	–	28.6
[3], 338.3 K	–	27.8
[3], 343.3 K	–	27.5
[4], 283.15 K	1.48794	–
[4], 288.15 K	1.48635	–
[4], 293.15 K	1.48471	–
[4], 298.15 K	1.48309	–
[4], 303.15 K	1.48142	–
[4], 308.15 K	1.47973	–
[4], 313.15 K	1.47796	–
[4], 318.15 K	1.4757	–
[4], 323.15 K	1.47387	–
[4], 328.15 K	1.4721	–
[4], 333.15 K	1.47029	–
[4], 338.15 K	1.46854	–
[4], 343.15 K	1.46677	–
[4], 348.15 K	1.46504	–
[4], 353.15 K	1.4634	–

CCCCCCCCCCCCCC[P+](CCCCCC)(CCCCCC)CCCCCC.[Cl-] [trihexyl(tetradecyl)phosphonium chloride] + O
w2 = 0.1334
Conditions	refractive index	surface tension liquid-gas [mN/m]
[1], 298.15 K	1.46283	–
[1], 303.15 K	1.46133	–
[1], 308.15 K	1.45953	–
[1], 313.15 K	1.45768	–
[1], 318.15 K	1.45595	–
[1], 323.15 K	1.45425	–
[1], 328.15 K	1.45266	–
[1], 333.15 K	1.45124	–
[1], 338.15 K	1.44998	–
[1], 343.15 K	1.44892	–
[1], 348.15 K	1.44798	–
[1], 353.15 K	1.4471	–
[2], 298.6 K	–	30.81
[2], 308 K	–	30.01
[2], 318.3 K	–	29.2
[2], 328.7 K	–	28.45
[2], 342.7 K	–	27.43

CCCCCCCCCC(=O)[O-].CCCCCCCCCCCCCC[P+](CCCCCC)(CCCCCC)CCCCCC [trihexyltetradecylphosphonium decanoate]
Conditions	refractive index	surface tension liquid-gas [mN/m]
[3], 298 K	–	29
[3], 307.9 K	–	28.5
[3], 318 K	–	27.8
[3], 328.5 K	–	27.2
[3], 338 K	–	26.6
[3], 343 K	–	26.2
[4], 283.15 K	1.47754	–
[4], 288.15 K	1.47586	–
[4], 293.15 K	1.47413	–
[4], 298.15 K	1.47242	–
[4], 303.15 K	1.47069	–
[4], 308.15 K	1.46896	–
[4], 313.15 K	1.46722	–
[4], 318.15 K	1.46548	–
[4], 323.15 K	1.46341	–
[4], 328.15 K	1.46165	–
[4], 333.15 K	1.46002	–
[4], 338.15 K	1.45828	–
[4], 343.15 K	1.4566	–
[4], 348.15 K	1.45497	–
[4], 353.15 K	1.45327	–
